According to patent US11026942B2, “Agent for preventing and/or treating Alzheimer's disease” (KYOTO UNIVERSITY, priority 2015, dated 2021):

Key:
Format in all cases: cell-based, human
[1] = system: Aβ42/40 ratio; assay: Aβ42/40 ratio in FAD1 iPS cell-derived nerve cells (primary/secondary screening, dose dependency); conditions: secondary screening
Excerpt: (§1) To perform induction from iPS cells to the cerebral cortex nerve early and with high reproducibility, iPS cells introduced with human Neurogenin 2 gene (NGN2) linked to doxycycline-inducible promoter by using PiggyBac were used (FIG. 1a, FIG. 1b, FIG. 4a and FIG. 4b). IPS cells prepared from 4 patients with familial Alzheimer's disease (FAD), 2 patients with sporadic Alzheimer's disease (SAD) and 4 healthy individuals (HC) were used. The iPS cells were established by the method described in Okita K et al., Nature.
(§2) Structural formulas (those in the form of salt or halide are also described as free form) and the general names of the candidate compounds are shown in Table 1.
(§3) To further study reproducibility of the candidate drugs obtained by the primary screening, secondary screening was conducted. In addition to Aβ40, Aβ42, Aβ42/40 ratio, Aβ38, Aβ43, sAPPα, sAPPβ were also studied and each numerical value was obtained.

[2] = system: Aβ38; assay: Aβ38 in FAD1 iPS cell-derived nerve cells (secondary screening); parameters: scale not given here
Description: as §3

[3] = system: sAPPα; assay: sAPPα in FAD1 iPS cell-derived nerve cells (secondary screening); parameters: scale not given here; conditions: secondary screening, FAD1 iPS cell-derived nerve cells
Description: as §3

[4] = system: sAPPβ; assay: sAPPβ in FAD1 iPS cell-derived nerve cells (secondary screening); parameters: sAPPβ: scale not given here; conditions: secondary screening, FAD1 iPS cell-derived nerve cells
Description: as §3

[5] = system: Aβ42; assay: Aβ42 in FAD1 iPS cell-derived nerve cells (primary/secondary screening, dose dependency); conditions: secondary screening, FAD1 iPS cell-derived nerve cells, numerical value (Aβ change rate)
Excerpt: as §1, §2, §3

[6] = system: Aβ43; assay: Aβ43 in FAD1 iPS cell-derived nerve cells (secondary screening); parameters: scale not given here
Description: as §3

Row | Structure (SMILES) | Ratio Aβ42/40 [1] | Aβ38 [2] | sAPPα [3] | sAPPβ [4] | Aβ42 [5] | Aβ43 [6]
1 | CCN(CC)CCNC(C(=O)OCCC(C)C)c1ccccc1 (stereo not drawn) [compound 33, CAMYLOFINE] | 0.85 | 1.12 | 0.89 | 0.71 | 0.9 | 0.88
2 | CCN(CC)C(=S)SSC(=S)N(CC)CC [compound 112] | 0.97 | 1.1 | 0.78 | 0.89 | 0.91 | 0.98
3 | Nc1ccn([C@@H]2O[C@H](CO)[C@@H](O)[C@@H]2O)c(=O)n1 [compound 115, CYTARABINE] | 0.9 | 0.99 | 0.74 | 0.69 | 0.8 | 0.81
4 | CCCCCCCCCCCCCCCC[N+](C)(C)C [compound 113, CETRIMONIUM] | 0.74 | 0.56 | 0.76 | 0.59 | 0.71 | 0.56
5 | Cc1cccc(C)c1NC(=O)C1CCCCN1C (stereo not drawn) [compound 2, MEPIVACAINE] | 0.93 | 1.01 | 0.77 | 0.88 | 0.9 | 0.83
6 | Nc1ccc(S(=O)(=O)c2ccc(N)cc2)cc1 [compound 120, DAPSONE] | 0.84 | 1.06 | 0.74 | 0.6 | 0.83 | 0.8
7 | CC(N=C(NC#N)Nc1ccncc1)C(C)(C)C (stereo not drawn) [compound 74] | 0.84 | 0.92 | 0.83 | 0.96 | 0.72 | 0.79
8 | CCN(CC)C(C)CN1c2ccccc2Sc2ccccc21 (stereo not drawn) [compound 15, ETHOPROPAZINE] | 0.88 | 1.03 | 0.72 | 0.71 | 0.84 | 0.84
9 | CNCCc1ccccn1 [compound 21, BETAHISTINE] | 1.08 | 1.01 | 0.73 | 0.91 | 0.98 | 0.87
10 | CC(=O)Nc1ccc(OC(C)=O)cc1 [compound 68, DIACETAMATE] | 0.76 | 1.08 | 0.98 | 0.86 | 0.86 | 0.97
11 | O=C(O)CCNC(=O)c1ccccc1 [compound 32, BETAMIPRON] | 0.82 | 1.1 | 0.7 | 0.6 | 0.84 | 0.82
12 | Cn1c(=O)c2[nH]c(Cl)nc2n(C)c1=O [compound 124, 8-chlorotheophylline] | 1.01 | 1.06 | 0.97 | 1.02 | 0.98 | 0.97
13 | c1ccc(-c2ccc(C(c3ccccc3)n3ccnc3)cc2)cc1 (stereo not drawn) [compound 27, BIFONAZOLE] | 0.84 | 1.06 | 1.04 | 1.19 | 0.84 | 0.99
14 | CNCC[C@@H](Oc1ccccc1C)c1ccccc1 [compound 4, ATOMOXETINE] | 0.94 | 1.1 | 0.78 | 0.81 | 0.95 | 0.89
15 | NC(=O)NC1NC(=O)NC1=O (stereo not drawn) [compound 116, ALLANTOIN] | 0.96 | 1.07 | 1.05 | 0.93 | 0.88 | 1.13
16 | CNC(=C[N+](=O)[O-])NCCSCc1csc(CN(C)C)n1 [compound 78, NIZATIDINE] | 0.98 | 1.3 | 0.97 | 1.29 | 1.04 | 1.15
17 | Oc1ccc(OCc2ccccc2)cc1 [compound 23, MONOBENZONE] | 0.91 | 1.05 | 0.74 | 0.56 | 0.82 | 0.89
18 | CC(C)[N+](C)(CCC(C(N)=O)(c1ccccc1)c1ccccc1)C(C)C [compound 19, ISOPROPAMIDE] | 1.24 | 1.09 | 0.84 | 0.74 | 0.88 | 0.95
19 | Nc1nc(=S)c2[nH]cnc2[nH]1 [compound 122, THIOGUANINE] | 0.88 | 0.91 | 0.95 | 0.9 | 0.69 | 0.92
20 | C=CCSCC1Nc2cc(Cl)c(S(N)(=O)=O)cc2S(=O)(=O)N1 (stereo not drawn) [compound 117, ALTHIAZIDE] | 0.91 | 1.03 | 0.92 | 0.7 | 0.81 | 0.91
21 | NCCCCCC(=O)O [compound 49, AMINOCAPROIC ACID] | 1 | 1.1 | 0.99 | 0.9 | 0.96 | 0.97
22 | CC1(C)C2CC[C@@]1(C)C(=O)C2 [compound 101, CAMPHOR (1R)] | 1.01 | 1.08 | 0.92 | 0.87 | 0.95 | 0.91
23 | Cc1ncc(CNC(=O)N(CCCl)N=O)c(N)n1 [compound 83, NIMUSTINE] | 0.86 | 1.04 | 0.81 | 0.89 | 0.84 | 0.89
24 | CN1CCc2cccc3c2[C@H]1Cc1ccc(O)c(O)c1-3 [compound 8, APOMORPHINE] | 1.01 | 1.08 | 0.8 | 0.78 | 0.93 | 1.01
25 | CCCCOC(=O)c1ccc(O)cc1 [compound 53, BUTYL PARABEN] | 1.02 | 1.04 | 0.74 | 0.69 | 0.94 | 0.81
26 | COc1ccccc1OCC(O)CN1CCN(CC(=O)Nc2c(C)cccc2C)CC1 (stereo not drawn) [compound 3, RANOLAZINE] | 0.89 | 1 | 0.64 | 0.61 | 0.85 | 0.82
27 | COc1ccc(CN2CCNCC2)c(OC)c1OC [compound 84, TRIMETAZIDINE] | 0.93 | 1.04 | 1.15 | 1.04 | 1.01 | 1.09
